Laboratory results published in patent US20020137929A1, “1 - (3-heterocyclylphenyl) isothiourea, -isourea, -guanidine and -amidine herbicidal agents” (Intellectual Property Department, BASF Aktiengesellschaft, priority 1998, published 2002).

Tests used:
[1] = system: GLXMAW (Soybean, Williams); experiment: Postemergence herbicidal evaluation; type: in vivo, Glycine max, (L.) Merr. cv Williams; settings: postemergence
In short: (§1)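 Each compound, dispersed in an acetone/water mix (50/50) carrying 0.5% TWEEN 20, is nozzle-sprayed at 40 psi on approximately two-week-old seedlings at about 0.0156–0.500 kg/ha. Plants are assessed 4–5 weeks afterward on a 0–9 scale relative to control; duplicate tests are averaged.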

SETVI (Foxtail, Green) = experiment: Postemergence herbicidal evaluation; type: in vivo, Setaria viridis; settings: postemergence
In short: as §1

CYPSE (Flatsedge) [2] = experiment: Preemergence weed control under flooded paddy conditions; type: in vivo, Cyperus serotinus; settings: rated 3-4 weeks after treatment
In short: (§2)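 First, seeds or propagules go into the top 0.5 cm of silt loam; next, water is held 1.5 to 3 cm over the soil; then compound (50/50 acetone/water) is pipetted into it at about 0.0313 to 0.500 kg/ha; finally plants are rated visually 0-9 after three to four weeks.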

CYPSE (Flatsedge) [3] = experiment: Postemergence weed control under flooded paddy conditions; type: in vivo, Cyperus serotinus; settings: postemergence weeds, rated 3 to 4 weeks after treatment
In short: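 Containers holding 3–5 cm weeds and rice at 1.5–2.5 leaves are flooded to 1.5–3 cm above soil. Compound in 50/50 v/v aqueous/acetone is then added directly to the water, about 0.0313–0.500 kg/ha. Plants are kept in the greenhouse and rated 0–9 visually at 3–4 weeks.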

CYPIR (Rice Flatsedge) = experiment: Preemergence weed control under flooded paddy conditions; type: in vivo, Cyperus iria; settings: rated 3-4 weeks after treatment
In short: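 Flooded-pot preemergence screen with silt loam and seeds in the upper 0.5 cm. Dose about 0.0313 to 0.500 kg/ha, delivered into flood water; visual 0-9 score after 3 to 4 weeks.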

GALAP (Galium) [4] = experiment: Postemergence herbicidal evaluation; type: in vivo, Galium aparine; settings: postemergence
In short: as §1

[5] = system: CHEAL (Lambsquarters, Common); experiment: Postemergence herbicidal evaluation; type: in vivo, Chenopodium album; settings: postemergence
In short: as §1

GALAP (Galium) [6] = experiment: Preemergence herbicidal evaluation; type: in vivo, Galium aparine; settings: rated 4-5 weeks after treatment
In short: (§3)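 Rating at 4–5 wk post-spray on a 0–9 visual scale vs control. Application: aqueous acetone, ~0.0156–0.500 kg/ha, to soil surface after seeding, preemergence.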

[7] = system: SAGPY (Arrowhead (Pygmaea)); experiment: Preemergence weed control under flooded paddy conditions; type: in vivo, Sagittaria pygmaea; settings: rated 3-4 weeks after treatment
In short: as §2

ECHCG (Barnyardgrass) = experiment: Postemergence herbicidal evaluation; type: in vivo, Echinochloa crus-galli; settings: postemergence
In short: as §1

CASOB (Sicklepod) [8] = experiment: Preemergence herbicidal evaluation; type: in vivo, Cassia obtusifolia; settings: rated 4-5 weeks after treatment
In short: as §3

CASOB (Sicklepod) [9] = experiment: Postemergence herbicidal evaluation; type: in vivo, Cassia obtusifolia; settings: postemergence
In short: as §1

AMBEL (Ragweed, Common) = experiment: Postemergence herbicidal evaluation; type: in vivo, Ambrosia artemisifolia; settings: postemergence
In short: as §1

ORYSAT (Rice, Tebonnet) = experiment: Postemergence herbicidal evaluation; type: in vivo, Oryza sativa, (L.) Tebonnet; settings: postemergence
In short: as §1

ZEAMX (Corn, Field) = experiment: Preemergence herbicidal evaluation; type: in vivo, Zea mays; settings: rated 4-5 weeks after treatment
In short: as §3

COC(=O)[C@H](Cc1ccc([N+](=O)[O-])cc1)N1C(=O)CSC1=Nc1cc(-n2c(=O)cc(C(F)(F)F)n(C)c2=O)c(F)cc1Cl [Compound 78, Methyl 2-{{2-chloro-5-[3,6-dihydro-3-methyl-2,6-dioxo-4-(trifluoromethyl)-1(2H)-pyrimidinyl]-4-fluorophenyl}imino}-4-oxo-α-(p-nitrobenzyl)-3-thiazolidineacetate, L-]
4.5: GLXMAW herbicidal rating ([1]; rate 0.0315 kg/ha)
7.0: CYPSE herbicidal effect rating (CYPSE (Flatsedge) [2]; 0.1250 kg/ha) | Herbicidal rating CYPSE (CYPSE (Flatsedge) [3]; Rate 0.1250 kg/ha) | AMBEL herbicidal rating (AMBEL (Ragweed, Common); rate 0.0158 kg/ha) | AMBEL herbicidal rating (AMBEL (Ragweed, Common); rate 0.0315 kg/ha)
3.0: Preemergence herbicidal rating GALAP (GALAP (Galium) [6]; rate 0.1250 kg/ha) | CASOB herbicidal rating (CASOB (Sicklepod) [9]; rate 0.0630 kg/ha) | ORYSAT herbicidal rating (ORYSAT (Rice, Tebonnet); rate 0.0158 kg/ha)
5.0: CYPIR herbicidal effect rating (CYPIR (Rice Flatsedge); 0.0313 kg/ha) | CYPIR herbicidal effect rating (CYPIR (Rice Flatsedge); 0.0625 kg/ha)
9.0: CYPSE herbicidal effect rating (CYPSE (Flatsedge) [2]; 0.2500 kg/ha) | Herbicidal rating CYPSE (CYPSE (Flatsedge) [3]; Rate 0.2500 kg/ha) | CYPIR herbicidal effect rating (CYPIR (Rice Flatsedge); 0.2500 kg/ha) | CHEAL herbicidal rating ([5]; rate 0.0158 kg/ha) | CHEAL herbicidal rating ([5]; rate 0.0315 kg/ha) | CHEAL herbicidal rating ([5]; rate 0.0630 kg/ha) | AMBEL herbicidal rating (AMBEL (Ragweed, Common); rate 0.0630 kg/ha)
0.0: Preemergence herbicidal rating GALAP (GALAP (Galium) [6]; rate 0.0156 kg/ha) | Preemergence herbicidal rating GALAP (GALAP (Galium) [6]; rate 0.0313 kg/ha) | Preemergence herbicidal rating GALAP (GALAP (Galium) [6]; rate 0.0625 kg/ha) | SAGPY herbicidal effect rating ([7]; 0.0313 kg/ha) | SAGPY herbicidal effect rating ([7]; 0.0625 kg/ha) | Preemergence herbicidal rating CASOB (CASOB (Sicklepod) [8]; rate 0.0313 kg/ha) | Preemergence herbicidal rating CASOB (CASOB (Sicklepod) [8]; rate 0.0625 kg/ha) | Preemergence herbicidal rating CASOB (CASOB (Sicklepod) [8]; rate 0.1250 kg/ha) | Preemergence herbicidal rating ZEAMX (ZEAMX (Corn, Field); rate 0.0156 kg/ha) | Preemergence herbicidal rating ZEAMX (ZEAMX (Corn, Field); rate 0.0313 kg/ha) | Preemergence herbicidal rating ZEAMX (ZEAMX (Corn, Field); rate 0.0625 kg/ha) | Preemergence herbicidal rating ZEAMX (ZEAMX (Corn, Field); rate 0.1250 kg/ha)
6.0: CYPSE herbicidal effect rating (CYPSE (Flatsedge) [2]; 0.0313 kg/ha) | CYPSE herbicidal effect rating (CYPSE (Flatsedge) [2]; 0.0625 kg/ha) | Herbicidal rating CYPSE (CYPSE (Flatsedge) [3]; Rate 0.0313 kg/ha) | Herbicidal rating CYPSE (CYPSE (Flatsedge) [3]; Rate 0.0625 kg/ha) | CYPIR herbicidal effect rating (CYPIR (Rice Flatsedge); 0.1250 kg/ha)
1.0: SETVI herbicidal rating (SETVI (Foxtail, Green); rate 0.0158 kg/ha) | SETVI herbicidal rating (SETVI (Foxtail, Green); rate 0.0315 kg/ha) | SETVI herbicidal rating (SETVI (Foxtail, Green); rate 0.0630 kg/ha) | GALAP herbicidal rating (GALAP (Galium) [4]; rate 0.0158 kg/ha) | GALAP herbicidal rating (GALAP (Galium) [4]; rate 0.0315 kg/ha) | ECHCG herbicidal rating (ECHCG (Barnyardgrass); rate 0.0158 kg/ha) | ECHCG herbicidal rating (ECHCG (Barnyardgrass); rate 0.0315 kg/ha) | ECHCG herbicidal rating (ECHCG (Barnyardgrass); rate 0.0630 kg/ha) | Preemergence herbicidal rating CASOB (CASOB (Sicklepod) [8]; rate 0.2500 kg/ha) | CASOB herbicidal rating (CASOB (Sicklepod) [9]; rate 0.0158 kg/ha) | CASOB herbicidal rating (CASOB (Sicklepod) [9]; rate 0.0315 kg/ha) | Preemergence herbicidal rating ZEAMX (ZEAMX (Corn, Field); rate 0.2500 kg/ha)
5.5: GLXMAW herbicidal rating ([1]; rate 0.0630 kg/ha)
2.0: GALAP herbicidal rating (GALAP (Galium) [4]; rate 0.0630 kg/ha) | Preemergence herbicidal rating GALAP (GALAP (Galium) [6]; rate 0.2500 kg/ha) | SAGPY herbicidal effect rating ([7]; 0.1250 kg/ha)
4.0: GLXMAW herbicidal rating ([1]; rate 0.0158 kg/ha) | SAGPY herbicidal effect rating ([7]; 0.2500 kg/ha) | ORYSAT herbicidal rating (ORYSAT (Rice, Tebonnet); rate 0.0630 kg/ha)
3.5: ORYSAT herbicidal rating (ORYSAT (Rice, Tebonnet); rate 0.0315 kg/ha)
